Measurements from the NIST ThermoML archive (doi:10.1021/je700215z).

Key:
[1] = xn = mol fraction of the nth substance listed

CCCCCC [hexane]
Settings | surface tension liquid-gas [mN/m]
283.15 K | 19.63
288.15 K | 19.04
293.15 K | 18.52
298.15 K | 18.06
303.15 K | 17.53
308.15 K | 16.74
313.15 K | 16.47

CCC(C)O (centres undefined) [butan-2-ol] + CCCCCC
surface tension liquid-gas [mN/m], [1]
Settings | 283.15 K | 288.15 K | 293.15 K | 298.15 K | 303.15 K | 308.15 K | 313.15 K
x1 = 0.0493 | 19.75 | 19.16 | 18.62 | 18.11 | 17.52 | 16.69 | 16.33
x1 = 0.1057 | 19.84 | 19.24 | 18.7 | 18.14 | 17.53 | 16.66 | 16.26
x1 = 0.2083 | 20 | 19.36 | 18.8 | 18.21 | 17.62 | 16.81 | 16.41
x1 = 0.3004 | 20.18 | 19.52 | 18.95 | 18.37 | 17.82 | 17.08 | 16.7
x1 = 0.4002 | 20.43 | 19.77 | 19.21 | 18.67 | 18.16 | 17.5 | 17.13
x1 = 0.4962 | 20.72 | 20.13 | 19.6 | 19.09 | 18.6 | 18.01 | 17.62
x1 = 0.5948 | 21.1 | 20.57 | 20.13 | 19.61 | 19.18 | 18.6 | 18.22
x1 = 0.6968 | 21.64 | 21.2 | 20.76 | 20.26 | 19.84 | 19.33 | 18.92
x1 = 0.8018 | 22.35 | 21.9 | 21.52 | 21.04 | 20.67 | 20.18 | 19.74
x1 = 0.8964 | 23.18 | 22.74 | 22.34 | 21.88 | 21.52 | 21.12 | 20.73
x1 = 0.9492 | 23.73 | 23.31 | 22.9 | 22.43 | 22.11 | 21.73 | 21.33

CCO [ethanol]
Settings | surface tension liquid-gas [mN/m]
283.15 K | 23.12
288.15 K | 22.75
293.15 K | 22.28
298.15 K | 21.86
303.15 K | 21.49
308.15 K | 21.15
313.15 K | 20.66

CCC(C)O (centres undefined) [butan-2-ol]
Settings | surface tension liquid-gas [mN/m]
283.15 K | 24.37
288.15 K | 23.95
293.15 K | 23.56
298.15 K | 23.08
303.15 K | 22.75
308.15 K | 22.39
313.15 K | 21.97

CCCCCC [hexane] + CCO
surface tension liquid-gas [mN/m], [1]
Settings | 283.15 K | 288.15 K | 293.15 K | 298.15 K | 303.15 K | 308.15 K | 313.15 K
x2 = 0.0855 | 19.7 | 19.11 | 18.57 | 18.03 | 17.49 | 16.67 | 16.3
x2 = 0.1006 | 19.74 | 19.11 | 18.56 | 18.03 | 17.48 | 16.66 | 16.29
x2 = 0.2107 | 19.73 | 19.1 | 18.55 | 18.01 | 17.42 | 16.64 | 16.2
x2 = 0.2928 | 19.77 | 19.18 | 18.57 | 18.03 | 17.46 | 16.68 | 16.24
x2 = 0.4128 | 19.9 | 19.29 | 18.71 | 18.15 | 17.57 | 16.85 | 16.38
x2 = 0.5071 | 20.08 | 19.46 | 18.84 | 18.29 | 17.72 | 17.04 | 16.56
x2 = 0.5909 | 20.26 | 19.67 | 19.02 | 18.45 | 17.93 | 17.26 | 16.74
x2 = 0.7036 | 20.61 | 20.02 | 19.36 | 18.8 | 18.26 | 17.7 | 17.21
x2 = 0.8032 | 21.05 | 20.46 | 19.88 | 19.32 | 18.82 | 18.31 | 17.85
x2 = 0.9021 | 21.78 | 21.28 | 20.73 | 20.22 | 19.81 | 19.38 | 18.91
x2 = 0.932 | 22.11 | 21.64 | 21.11 | 20.64 | 20.22 | 19.82 | 19.36

CCCCCC [hexane] + CCCCO
surface tension liquid-gas [mN/m], [1]
Settings | 283.15 K | 288.15 K | 293.15 K | 298.15 K | 303.15 K | 308.15 K | 313.15 K
x2 = 0.0519 | 19.78 | 19.15 | 18.6 | 18.11 | 17.55 | 16.75 | 16.4
x2 = 0.0875 | 19.87 | 19.26 | 18.7 | 18.2 | 17.61 | 16.8 | 16.43
x2 = 0.1959 | 20.17 | 19.58 | 19.03 | 18.52 | 17.92 | 17.13 | 16.74
x2 = 0.2999 | 20.41 | 19.88 | 19.35 | 18.84 | 18.28 | 17.52 | 17.12
x2 = 0.399 | 20.69 | 20.14 | 19.65 | 19.1 | 18.62 | 17.91 | 17.48
x2 = 0.4914 | 20.93 | 20.4 | 19.96 | 19.43 | 18.92 | 18.29 | 17.83
x2 = 0.5974 | 21.44 | 20.9 | 20.44 | 19.91 | 19.43 | 18.82 | 18.39
x2 = 0.7044 | 22.14 | 21.63 | 21.18 | 20.6 | 20.17 | 19.59 | 19.12
x2 = 0.8027 | 23.09 | 22.54 | 22.13 | 21.54 | 21.13 | 20.6 | 20.15
x2 = 0.9088 | 24.37 | 23.85 | 23.44 | 22.87 | 22.51 | 22.06 | 21.6
x2 = 0.953 | 24.93 | 24.47 | 24.07 | 23.53 | 23.18 | 22.76 | 22.37

CCCCO [butan-1-ol]
Settings | surface tension liquid-gas [mN/m]
283.15 K | 25.55
288.15 K | 25.12
293.15 K | 24.78
298.15 K | 24.25
303.15 K | 23.95
308.15 K | 23.55
313.15 K | 23.15
